What all share (format): biochemical
Assay [1] concerns the target T1, human GST-DYRK1A (Homo sapiens, UniProt Q13627).
T1 construct: purified human GST-DYRK1A (full length, Thermo Scientifics) enzyme; purchased Thermo Scientifics
Nature of the assay: GST-DYRK1A enzyme inhibition, ADP-Glo kinase assay. The conditions noted are these: ATP 10 μM, GST-DYRK1A full length, read-out: DYRK1 IC50. The gist of the method: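 Full-length human GST-DYRK1A (10 ng) with 10 μM ATP and specific substrate in 40 mM Tris-HCl pH 7.4, 20 mM MgCl2, 0.5 mg/mL BSA, 50 μM DTT, 1 h at 25 °C. ADP formation read by ADP-Glo luminescence relative to solvent control; IC50 from three data sets.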
(In general: ADP-Glo turns the ADP formed in a reaction into a luminescent signal.)

Assay [2] addresses LRRK2 (G2019S) (Homo sapiens, UniProt Q5S007, G2019S). Kind of assay: LRRK2 G2019S enzyme inhibition, ADP-Glo kinase assay. Details: purchased SignalChem L10-12GG. The following applies: ATP 25 μM. Here is the method: To evaluate an inhibitory activity of the compound according to the present invention against LRRK2, LRRK2 (G2019S), DYRK1, CLK1, and TTK kinases, experiments were performed as follows.
Each of the Example compounds was reacted with a purified human LRRK2 G2019S (L10-12GG, SignalChem) enzyme to evaluate an ability to inhibit an enzyme using a method as described below. A composition of 40 mM Tris-HCl (pH 7.4), 20 mM MgCl2, 0.5 mg/mL BSA, and 50 μM DTT was used as a reaction buffer, and all reactions of test substances were performed in the reaction buffer. Each of the compounds was diluted […] from a 10 mM DMSO stock using a serial dilution method, and enzyme activities were measured at final compound concentrations of 50, 10, 2, 0.4, 0.08, 0.016, 0.0032, 0.00064, 0.000128, 0.0000256, 0.00000512, and 0.000001024 μM. In the test, purified ATP (25 μM) and an enzyme substrate (0.2 μg) were reacted with a human LRRK2 G2019S (16 ng) enzyme at 25° C. for 2 hours, and the enzyme activities were then determined using an in vitro ADP-Glo™ kinase assay (Promega). An enzyme-activity reaction solution, an ADP-Glo reaction solution, and an enzyme-ability detection solution were reacted at a ratio of 2:2:1 to measure a degree of inhibition of the enzyme activity with luminescence. The degree of inhibition of the enzyme activity according to the treatment concentration of each of the compounds was calculated based on the fluorescence of the enzyme activity of the solvent control which was not treated with the compound. In this case, the concentration of each of the compounds inhibiting 50% of the enzyme activity was determined to be an IC50 (nM) value, and calculated using Prism (Version 5.01; GraphPad) software.

In assay [3] the target is T2, human GST-CLK1 (Homo sapiens, UniProt P49759).
T2 construct: purified human GST-CLK1 (129-end, SignalChem) enzyme; purchased SignalChem
Kind of assay: GST-CLK1 enzyme inhibition, ADP-Glo kinase assay. The conditions noted are these: ATP 10 μM, GST-CLK1 129-end. The method, boiled down:
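Human GST-CLK1 (129-end, 3 ng) reacted with substrate and 10 μM ATP for 1 h at 25° C in 40 mM Tris-HCl pH 7.4, 20 mM MgCl2, 0.5 mg/mL BSA, 50 μM DTT. ADP-Glo luminescence was normalised to solvent control; IC50 (nM) from 3 data sets.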

pIC50: −log10 of the molar value.

T2 sequence (P49759 129-484 limits assumed): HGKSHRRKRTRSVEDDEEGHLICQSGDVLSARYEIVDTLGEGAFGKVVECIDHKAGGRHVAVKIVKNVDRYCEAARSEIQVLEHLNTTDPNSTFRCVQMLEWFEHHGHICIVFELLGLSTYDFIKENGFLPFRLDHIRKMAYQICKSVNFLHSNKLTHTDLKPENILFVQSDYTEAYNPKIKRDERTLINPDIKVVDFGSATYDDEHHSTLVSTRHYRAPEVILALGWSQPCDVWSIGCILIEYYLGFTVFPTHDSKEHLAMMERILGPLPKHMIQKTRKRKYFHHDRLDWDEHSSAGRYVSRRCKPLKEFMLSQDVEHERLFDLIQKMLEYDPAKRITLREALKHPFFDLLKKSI
LRRK2 (G2019S), sequence (Q5S007 970-2527 G2019S limits assumed): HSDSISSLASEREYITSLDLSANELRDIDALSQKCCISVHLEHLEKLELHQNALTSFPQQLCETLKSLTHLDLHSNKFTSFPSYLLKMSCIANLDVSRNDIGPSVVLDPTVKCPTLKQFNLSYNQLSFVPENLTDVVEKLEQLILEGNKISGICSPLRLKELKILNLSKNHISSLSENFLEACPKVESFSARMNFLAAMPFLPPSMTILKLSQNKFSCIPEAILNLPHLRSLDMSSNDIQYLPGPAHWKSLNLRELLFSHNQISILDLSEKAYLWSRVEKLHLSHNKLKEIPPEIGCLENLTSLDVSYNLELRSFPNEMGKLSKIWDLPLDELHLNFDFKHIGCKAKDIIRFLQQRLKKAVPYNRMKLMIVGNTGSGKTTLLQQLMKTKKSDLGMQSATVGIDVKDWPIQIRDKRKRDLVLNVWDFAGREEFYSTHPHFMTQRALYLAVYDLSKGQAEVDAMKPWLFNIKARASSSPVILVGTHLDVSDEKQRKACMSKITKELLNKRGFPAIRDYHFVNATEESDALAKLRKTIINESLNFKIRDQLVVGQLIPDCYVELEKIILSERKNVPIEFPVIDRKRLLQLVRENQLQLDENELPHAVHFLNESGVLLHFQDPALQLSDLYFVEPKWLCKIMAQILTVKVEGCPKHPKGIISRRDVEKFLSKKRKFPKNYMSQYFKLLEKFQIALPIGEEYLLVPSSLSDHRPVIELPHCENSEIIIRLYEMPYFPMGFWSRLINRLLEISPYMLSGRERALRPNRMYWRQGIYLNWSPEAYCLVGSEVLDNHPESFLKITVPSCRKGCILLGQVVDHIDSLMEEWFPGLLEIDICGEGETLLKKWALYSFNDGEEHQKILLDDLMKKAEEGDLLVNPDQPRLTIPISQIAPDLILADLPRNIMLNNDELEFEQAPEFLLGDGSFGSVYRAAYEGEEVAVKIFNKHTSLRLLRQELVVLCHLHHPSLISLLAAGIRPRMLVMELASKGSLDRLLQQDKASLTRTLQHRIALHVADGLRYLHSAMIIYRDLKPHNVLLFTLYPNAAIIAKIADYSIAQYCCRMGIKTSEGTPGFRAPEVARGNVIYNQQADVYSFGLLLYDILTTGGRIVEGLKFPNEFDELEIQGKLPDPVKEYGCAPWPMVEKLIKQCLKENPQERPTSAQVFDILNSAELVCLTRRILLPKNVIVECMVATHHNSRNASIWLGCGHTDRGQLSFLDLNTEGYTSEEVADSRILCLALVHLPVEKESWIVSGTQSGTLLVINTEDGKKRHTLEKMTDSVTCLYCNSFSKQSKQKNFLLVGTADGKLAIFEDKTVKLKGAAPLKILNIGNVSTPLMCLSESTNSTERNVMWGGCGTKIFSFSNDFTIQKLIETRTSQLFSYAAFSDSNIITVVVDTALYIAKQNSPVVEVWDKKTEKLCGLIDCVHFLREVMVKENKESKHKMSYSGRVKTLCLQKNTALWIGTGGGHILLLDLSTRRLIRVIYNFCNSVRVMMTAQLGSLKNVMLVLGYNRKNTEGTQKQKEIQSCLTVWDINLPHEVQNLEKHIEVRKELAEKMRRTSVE

As usually defined, the pIC50 is −log10 of the IC50, conventionally taken in molar units. Regarding `COc1cc(S(C)(=O)=O)ccc1Nc1nc(NCC(C)C)c2c(C#N)c[nH]c2n1` [Example 100, 4-(isobutylamino)-2-((2-methoxy-4-(methylsulfonyl)phenyl)amino)-7H-pyrrolo[2,3-d]pyrimidine-5-carbonitrile], the pIC50 in assay [1] was 6.00 to 6.52; in assay [2], over 7.00; in assay [3], 6.00 to 6.52.

Regarding `CCCCNc1nc(Nc2ccc(C(=O)N3CCOCC3)c3c2OCC3)nc2[nH]cc(C(F)(F)F)c12` [Example 465, (7-((4-(butylamino)-5-(trifluoromethyl)-7H-pyrrolo[2,3-d]pyrimidin-2-yl)amino)-2,3-dihydrobenzo-furan-4-yl) (morpholino) methanone], the pIC50 in assay [1] was 6.00 to 6.52; in assay [2], over 7.00; in assay [3] it was 6.00 to 6.52.

On to `CC(C)Nc1nc(Nc2ccc(C(=O)N3CCC(N4CCOCC4)CC3)c3c2OCC3)nc2[nH]cc(C#N)c12` [Example 353, 4-(isopropylamino)-2-((4-(4-morpholino-piperidine-1-carbonyl)-2,3-dihydro-benzofuran-7-yl)amino)-7H-pyrrolo[2,3-d]pyrimidine-5-carbonitrile], for which the pIC50 in assay [1], in assay [2] and in assay [3] was over 7.00 throughout.

Turning to `COc1cc(S(=O)(=O)N2CCOCC2)ccc1Nc1nc(NC2CCCC2)c2cc[nH]c2n1` [Example 25, N^4-cyclopentyl-N^2-(2-methoxy-4-(morpholinosulfonyl)phenyl)-7H-pyrrolo[2,3-d]pyrimidine-2,4-diamine 2,2,2-trifluoroacetate], the pIC50 in assay [1] is 6.00 to 6.52; in assay [2], over 7.00; in assay [3], 6.00 to 6.52.

Consider `COc1cc(S(=O)(=O)N2CCOCC2)ccc1Nc1nc(NCC2CCCC2)c2cc[nH]c2n1` [Example 40, N^4-(cyclopentylmethyl)-N^2-(2-methoxy-4-(morpholinosulfonyl)phenyl)-7H-pyrrolo[2,3-d]pyrimidine-2,4-diamine 2,2,2-trifluoroacetate], for which the pIC50 in assay [1], in assay [2] and in assay [3] was 6.00 to 6.52 throughout.

Consider `O=C(c1ccc(Nc2nc(NC3CC3)c3cc[nH]c3n2)c2c1OCCO2)N1CCOCC1` [Example 56, (8-((4-(cyclopropylamino)-7H-pyrrolo[2,3-d]pyrimidin-2-yl)amino)-2,3-dihydrobenzo[b][1,4]dioxin-5-yl)(morpholino)methanone], for which the pIC50 in assay [1] is 6.00 to 6.52; in assay [2] it was over 7.00; in assay [3], 6.00 to 6.52.

Consider `COc1cc(P2(=O)CCN(C3COC3)CC2)ccc1Nc1nc(NCCS(C)(=O)=O)c2c(C#N)c[nH]c2n1` [Example 314, 2-((2-methoxy-4-(1-(oxetan-3-yl)-4-oxido-1,4-azaphosphinan-4-yl)phenyl)amino)-4-((2-(methyl-sulfonyl)eth-yl)amino)-7H-pyrrolo[2,3-d]pyrimidine-5-carbonitrile], for which the pIC50 in assay [1] is 6.00 to 6.52; in assay [2], over 7.00; in assay [3], 6.00 to 6.52.

With `O=C(c1ccc(Nc2nc(NC3CCC3)c3cc[nH]c3n2)c2c1OCCO2)N1CCOCC1` [Example 47, (8-((4-(cyclobutylamino)-7H-pyrrolo[2,3-d]pyrimidin-2-yl)amino)-2,3-dihydrobenzo[b][1,4]dioxin-5-yl)(morpholino)methanone], the pIC50 in assay [1] was 6.00 to 6.52; in assay [2], over 7.00; in assay [3] it was 6.00 to 6.52.

With `CS(=O)(=O)CCNc1nc(Nc2ccc(C(=O)N3CCN(C4COC4)CC3)c3c2OCCO3)nc2[nH]cc(C(F)(F)F)c12` [Example 427, (8-((4-((2-(methylsulfonyl)ethyl)amino)-5-(trifluoromethyl)-7H-pyrrolo[2,3-d]pyrimidin-2-yl)amino)-2,3-dihydrobenzo[b] [1,4]dioxin-5-yl) (4-(oxetan-3-yl)piperazin-1-yl)methanone], the pIC50 in assay [1], in assay [2] and in assay [3] was over 7.00 throughout.

Source of the values: patent publication US20230066011A1, “PYRROLOPYRIMIDINE DERIVATIVE, AND PHARMACEUTICAL COMPOSITION FOR PREVENTING OR TREATING PROTEIN KINASE-RELATED DISEASE COMPRISING SAME AS ACTIVE INGREDIENT” (VORONOI CO., LTD., priority 2019, published 2023).
